# Test results as given in patent publication US8247211B2, “Glycopeptide antibiotics” (American Cyanamid Company, priority 2001, dated 2012).
# What was measured:
# Test in all cases: In vitro antibacterial evaluation: minimum inhibitory concentration (MIC), broth dilution method
# Assay type in all cases: cell-based
# Enterococcus sp. = tested on: Enterococcus sp.
# Procedure, shortened: (§1)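 MIC read as lowest drug level preventing visible growth. Organisms at 5×10^5 CFU/mL were exposed to a 64-0.06 μg/mL dilution series in Muller-Hinton II […] following NCCLS broth dilution standard M7-A2.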
# Escherichia coli = tested on: Escherichia coli
# Procedure, shortened: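 Following NCCLS approved standard M7-A2, compounds are serially diluted from 64 to 0.06 μg/mL in Muller-Hinton II […] and inoculated at 5×10^5 CFU/mL; the MIC is the minimum concentration at which growth is inhibited.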
# Staphylococcus sp. = conditions: broth dilution, 18 hours at 35° C.
# Procedure, shortened: as §1
# Streptococcus sp. = tested on: Streptococcus sp.
# Procedure, shortened: as §1
substance,measurement,setting,value
Di-N-(4-tert-butylbenzyl)-cyclo[glycyl-β-methylphenylalanyl-O-(4-O-hexopyranosylhexopyranosyl)tyrosyl-3-(2-iminoimidazolidin-4-yl)seryl-3-(3-hexopyranosyl-2-iminoimidazolidin-4-yl)serylseryl] [Example 60a],MIC Enterococcus avium (GC 4558),"Enterococcus sp.; Enterococcus avium (GC 4558), broth dilution, 18 hours at 35° C.",128 µg/mL
same,MIC Enterococcus faecalis (ATCC 29212),"Enterococcus sp.; Enterococcus faecalis (ATCC 29212), broth dilution, 18 hours at 35° C.",>128 µg/mL
same,MIC Enterococcus faecalis (GC 2242),"Enterococcus sp.; Enterococcus faecalis (GC 2242), broth dilution, 18 hours at 35° C.",>128 µg/mL
same,MIC Enterococcus faecalis (GC 2691),"Enterococcus sp.; Enterococcus faecalis (GC 2691), broth dilution, 18 hours at 35° C.",>128 µg/mL
same,MIC Enterococcus faecalis (GC 3059),"Enterococcus sp.; Enterococcus faecalis (GC 3059), broth dilution, 18 hours at 35° C.",>128 µg/mL
same,MIC Enterococcus faecalis (GC 4552),"Enterococcus sp.; Enterococcus faecalis (GC 4552), broth dilution, 18 hours at 35° C.",>128 µg/mL
same,MIC Enterococcus faecalis (GC 4553),"Enterococcus sp.; Enterococcus faecalis (GC 4553), broth dilution, 18 hours at 35° C.",128 µg/mL
same,MIC Enterococcus faecalis (GC 4554),"Enterococcus sp.; Enterococcus faecalis (GC 4554), broth dilution, 18 hours at 35° C.",>128 µg/mL
same,MIC Enterococcus faecalis (GC 6189),"Enterococcus sp.; Enterococcus faecalis (GC 6189), broth dilution, 18 hours at 35° C.",>128 µg/mL
same,MIC Enterococcus faecium (GC 2243),"Enterococcus sp.; Enterococcus faecium (GC 2243), broth dilution, 18 hours at 35° C.",>128 µg/mL
same,MIC Enterococcus faecium (GC 4556),"Enterococcus sp.; Enterococcus faecium (GC 4556), broth dilution, 18 hours at 35° C.",>128 µg/mL
same,MIC Enterococcus faecium (GC 4557),"Enterococcus sp.; Enterococcus faecium (GC 4557), broth dilution, 18 hours at 35° C.",128 µg/mL
same,MIC Enterococcus faecalis (ATCC 29212),Enterococcus sp.; strain ATCC 29212,>128 µg/mL
same,MIC Enterococcus faecalis (GC 2242),Enterococcus sp.; strain GC 2242,>128 µg/mL
same,MIC Enterococcus faecium (GC 2243),Enterococcus sp.; strain GC 2243,>128 µg/mL
same,MIC Enterococcus faecalis (GC 2691),Enterococcus sp.; strain GC 2691,>128 µg/mL
same,MIC Enterococcus faecalis (GC 3059),Enterococcus sp.; strain GC 3059,>128 µg/mL
same,MIC Enterococcus faecalis (GC 4552),Enterococcus sp.; strain GC 4552,>128 µg/mL
same,MIC Enterococcus faecalis (GC 4553),Enterococcus sp.; strain GC 4553,128 µg/mL
same,MIC Enterococcus faecalis (GC 4554),Enterococcus sp.; strain GC 4554,>128 µg/mL
same,MIC Enterococcus faecium (GC 4556),Enterococcus sp.; strain GC 4556,>128 µg/mL
same,MIC Enterococcus faecium (GC 4557),Enterococcus sp.; strain GC 4557,128 µg/mL
same,MIC Enterococcus avium (GC 4558),Enterococcus sp.; strain GC 4558,128 µg/mL
same,MIC Enterococcus faecalis (GC 6189),Enterococcus sp.; strain GC 6189,>128 µg/mL
same,MIC Escherichia coli (ATCC 25922),Escherichia coli; strain ATCC 25922,>128 µg/mL
same,MIC Escherichia coli (GC 4559),Escherichia coli; strain GC 4559,>128 µg/mL
same,MIC Escherichia coli (GC 4560),Escherichia coli; strain GC 4560,16 µg/mL
same,MIC Coagulase Negative Staphylococcus (GC 4547),Staphylococcus sp.,>128 µg/mL
same,MIC Coagulase Negative Staphylococcus (GC 4548),Staphylococcus sp.,>128 µg/mL
same,MIC Coagulase Negative Staphylococcus (GC 4549),Staphylococcus sp.,>128 µg/mL
same,MIC Coagulase Negative Staphylococcus (GC 4551),Staphylococcus sp.,>128 µg/mL
same,MIC Coagulase Negative Staphylococcus (GC 6257),Staphylococcus sp.,>128 µg/mL
same,MIC Staphylococcus aureus (ATCC 29213),Staphylococcus sp.,>128 µg/mL
same,MIC Staphylococcus aureus (GC 1131),Staphylococcus sp.,>128 µg/mL
same,MIC Staphylococcus aureus (GC 3051),Staphylococcus sp.,>128 µg/mL
same,MIC Staphylococcus aureus (GC 3053),Staphylococcus sp.,>128 µg/mL
same,MIC Staphylococcus aureus (GC 4541),Staphylococcus sp.,>128 µg/mL
same,MIC Staphylococcus aureus (GC 4542),Staphylococcus sp.,>128 µg/mL
same,MIC Staphylococcus aureus (GC 4544),Staphylococcus sp.,>128 µg/mL
same,MIC Staphylococcus aureus (GC 4545),Staphylococcus sp.,>128 µg/mL
same,MIC Staphylococcus aureus SMITH (GC 4543),Staphylococcus sp.,>128 µg/mL
same,MIC Staphylococcus haemolyticus (GC 4546),Staphylococcus sp.,>128 µg/mL
same,MIC Staphylococcus aureus (ATCC 29213),Staphylococcus sp.; strain ATCC 29213,>128 µg/mL
same,MIC Staphylococcus aureus (GC 1131),Staphylococcus sp.; strain GC 1131,>128 µg/mL
same,MIC Staphylococcus aureus (GC 3051),Staphylococcus sp.; strain GC 3051,>128 µg/mL
same,MIC Staphylococcus aureus (GC 3053),Staphylococcus sp.; strain GC 3053,>128 µg/mL
same,MIC Staphylococcus aureus (GC 4541),Staphylococcus sp.; strain GC 4541,>128 µg/mL
same,MIC Staphylococcus aureus (GC 4542),Staphylococcus sp.; strain GC 4542,>128 µg/mL
same,MIC Staphylococcus aureus (GC 4544),Staphylococcus sp.; strain GC 4544,>128 µg/mL
same,MIC Staphylococcus aureus (GC 4545),Staphylococcus sp.; strain GC 4545,>128 µg/mL
same,MIC Staphylococcus haemolyticus (GC 4546),Staphylococcus sp.; strain GC 4546,>128 µg/mL
same,MIC Coagulase Negative Staphylococcus (GC 4547),Staphylococcus sp.; strain GC 4547,>128 µg/mL
same,MIC Coagulase Negative Staphylococcus (GC 4548),Staphylococcus sp.; strain GC 4548,>128 µg/mL
same,MIC Coagulase Negative Staphylococcus (GC 4549),Staphylococcus sp.; strain GC 4549,>128 µg/mL
same,MIC Coagulase Negative Staphylococcus (GC 4551),Staphylococcus sp.; strain GC 4551,>128 µg/mL
same,MIC Coagulase Negative Staphylococcus (GC 6257),Staphylococcus sp.; strain GC 6257,>128 µg/mL
same,MIC Staphylococcus aureus-SMITH (GC 4543),Staphylococcus sp.; strain SMITH GC 4543,>128 µg/mL
same,MIC Streptococcus agalactiae (GC 4564),"Streptococcus sp.; Streptococcus agalactiae (GC 4564), broth dilution, 18 hours at 35° C.",>128 µg/mL
same,MIC Streptococcus pneumoniae (ATCC 6301),"Streptococcus sp.; Streptococcus pneumoniae (ATCC 6301), broth dilution, 18 hours at 35° C.",>128 µg/mL
same,MIC Streptococcus pneumoniae (GC 1894),"Streptococcus sp.; Streptococcus pneumoniae (GC 1894), broth dilution, 18 hours at 35° C.",64 µg/mL
same,MIC Streptococcus pneumoniae (GC 4565),"Streptococcus sp.; Streptococcus pneumoniae (GC 4565), broth dilution, 18 hours at 35° C.",128 µg/mL
same,MIC Streptococcus pyogenes (GC 4563),"Streptococcus sp.; Streptococcus pyogenes (GC 4563), broth dilution, 18 hours at 35° C.",>128 µg/mL
same,MIC Streptococcus pneumoniae (ATCC 6301),Streptococcus sp.; strain ATCC 6301,>128 µg/mL
same,MIC Streptococcus pneumoniae (GC 1894),Streptococcus sp.; strain GC 1894,64 µg/mL
same,MIC Streptococcus pyogenes (GC 4563),Streptococcus sp.; strain GC 4563,>128 µg/mL
same,MIC Streptococcus agalactiae (GC 4564),Streptococcus sp.; strain GC 4564,>128 µg/mL
same,MIC Streptococcus pneumoniae (GC 4565),Streptococcus sp.; strain GC 4565,128 µg/mL
